Consider 3 compounds from patent publication US6376224B1, “Pharmaceutical compositions for eliminating membrane-mediated cell resistance” (Deutsches Krebsforschungszentrum Stiftung des Offentlichen …, priority 1997, dated 2002).

Read-outs that look alike come from different tables or passages of the source.

The subject of experiment [1] is KB cells (human carcinoma cells). The experiment in a line: Growth inhibition of chemosensitive KB cells after drug incubation and laser exposure. In kind it is cell-based. The following applies: for IC50: KB (w.t.), 10 min incubation, 3 days culture, read-out: 50% inhibitory concentration (cell growth). The protocol:
(§1) In addition, chemosensitive KB cells (human carcinoma cells) were compared with their chemoresistant KBC5-8 variant. The multi-chemoresistance of the latter is also P-glycoprotein-mediated and was induced experimentally by colchicine addition to the cell culture medium. Before the experiment started, the human carcinoma cells were typsinized and suspended in fresh cell culture medium.
(§2) Then, the cells were incubated with graded concentrations of vinblastin and napavin (photoactivity-labeled cytostatic agent). […] The mouse ascites cells were incubated with these pharmacetuical agents for five minutes. The human tumor cells were incubated for ten minutes. Then, the cell suspensions were transferred by pipetting into plastic dishes or trays and exposed using an argon laser (457.8 nm, 48 mW/cm^2) at room temperature for 1 minute. Thereafter, the cells were washed with fresh cell culture medium twice and cultured in 24-well multidishes or multitrays for three days. At the end of the experiment, cell growth was measured and the 50% inhibitory concentration of the cytostatic agents vinblastin and napavin was determined graphically as usual.

Experiment [2] has as its system mouse ascites cells (strain SR, P-glycoprotein-mediated multi-chemoresistance). The experiment can be described thus: Growth inhibition of multi-chemoresistant mouse ascites cells SR after drug incubation and laser exposure. The class given is cell-based. The following applies: for IC50: read-out: 50% inhibitory concentration (cell growth); for 50% growth inhibition concentration in SR relative to wild-type (HD34K) concentration: absence of verapamil. The protocol: (§3) Chemosensitive mouse ascites cells (strain HD34K) were compared with their variant (strain SR) which distinuishes itself by P-glycoprotein-mediated multi-chemoresistance. The chemoresistance of the SR cells developed spontaneously. The mouse ascites cells were suspended in fresh cell culture medium before the experiment started.
(§4) All of the experiments were carried out under flavin-protecting test conditions (Granzow et al., Cancer Res. 55, 4837-4843, (1995)). Freshly prepared cell suspensions were previously incubated at 36.5° C. for 15 minutes. Then, the cells were incubated with graded concentrations of vinblastin and napavin (photoactivity-labeled cytostatic agent). […] The mouse ascites cells were incubated with these pharmacetuical agents for five minutes. The human tumor cells were incubated for ten minutes. Then, the cell suspensions were transferred by pipetting into plastic dishes or trays and exposed using an argon laser (457.8 nm, 48 mW/cm^2) at room temperature for 1 minute. Thereafter, the cells were washed with fresh cell culture medium twice and cultured in 24-well multidishes or multitrays for three days. At the end of the experiment, cell growth was measured and the 50% inhibitory concentration of the cytostatic agents vinblastin and napavin was determined graphically as usual.

Experiment [3] relates to mouse ascites cells (strain HD34K). The experiment in a line: Growth inhibition of chemosensitive mouse ascites cells HD34K after drug incubation and laser exposure. In kind it is cell-based. To be noted: HD34K (w.t.), 5 min incubation, argon laser 1 min, 3 days culture; for IC50: read-out: 50% inhibitory concentration (cell growth). The protocol:
as §3, §4

Experiment [4] deals with KBC5-8 variant (P-glycoprotein-mediated multi-chemoresistance). The experiment can be described thus: Growth inhibition of multi-chemoresistant KBC5-8 cells after drug incubation and laser exposure. The class given is cell-based, human. The following applies: read-out: 50% inhibitory concentration (cell growth). The protocol:
as §1, §2

[5] abbreviates: no verapamil, argon laser 457.8 nm 1 min.

Take `COc1ccc(CCN(C)CCCC(C#N)(c2ccc(OC)c(OC)c2)C(C)C)cc1OC` (stereo not shown) [VPM, verapamil]: the “Influence of verapamil on concentration required for 50% growth suppression” value in experiment [1] (KB cells, vinblastin and napavin) was “no influence”.
Regarding napavin, the IC50 in experiment [2] (SR (mdr), + 1 μM verapamil, 5 min incubation, argon laser 1 min, 3 days culture) was 900 nM; in experiment [2] (SR (mdr), + 2 μM verapamil, 5 min incubation, argon laser 1 min, 3 days culture), 600 nM; in experiment [2] (SR (mdr), no verapamil, 5 min incubation, argon laser 1 min, 3 days culture), 4750 nM; in experiment [3] (+ 1 μM verapamil), 330 nM; in experiment [3] (no verapamil, listed as napavin), around 400 nM; in experiment [3] (no verapamil), 430 nM. The IC50 was determined as 1000 nM in experiment [4] (KBC5-8 (mdr), + 1 μM verapamil, 10 min incubation, argon laser 1 min, 3 days culture); 350 nM in experiment [4] (KBC5-8 (mdr), + 2 μM verapamil, 10 min incubation, argon laser 1 min, 3 days culture); 3800 nM in experiment [4] (KBC5-8 (mdr), no verapamil, 10 min incubation, argon laser 1 min, 3 days culture); 150 nM in experiment [1] (+ 1 μM verapamil, argon laser 1 min); 160 nM in experiment [1] (setting [5]). Besides, in experiment [2], the “50% growth inhibition concentration in SR relative to wild-type (HD34K) concentration” value was found to be 10 times. Further, the “Inhibitory concentrations SR versus wild-type HD34K” value was “no longer differ significantly” in experiment [2] (with 1 μM verapamil) and “identical” in experiment [2] (with 2 μM verapamil). Also, the “50% inhibitory concentration (cell growth)” value in experiment [3] (+ 1 μM verapamil) is listed as “slightly less”.
Regarding `CC[C@]1(O)C[C@@H]2CN(CCc3c([nH]c4ccccc34)[C@@](C(=O)OC)(c3cc4c(cc3OC)N(C)[C@H]3[C@@](O)(C(=O)OC)[C@H](OC(C)=O)[C@]5(CC)C=CCN6CC[C@]43[C@@H]65)C2)C1` [VLB, vinblastin, reference compound], the IC50 in experiment [2] (Mus musculus) is 7000 nM; in experiment [3] (Mus musculus, + 1 μM verapamil), 750 nM; in experiment [3] (Mus musculus, no verapamil), 660 nM; in experiment [4] (Homo sapiens) it was 27000 nM; in experiment [1] (Homo sapiens, KB, + 1 μM verapamil, argon laser 1 min) it was 180 nM; in experiment [1] (Homo sapiens, KB, no verapamil, argon laser 457.8 nm 1 min), 100 to 200 nM. Besides, the IC50 in experiment [1] (setting [5]) stood at 160 nM. In experiment [2], the “50% growth inhibition concentration in SR relative to wild-type (HD34K) concentration” value is recorded as “about 10 times”. Moreover, the “50% inhibitory concentration (cell growth)” value in experiment [3] (+ 1 μM verapamil) is reported as “insignificantly higher”.
